According to patent EP1270558B1, “"Compound for the treatment of atherosclerotic-thrombotic pathological conditions"” (Casagrande, Cesare, priority 2001, dated 2003):
Where two headings read alike, the source gives them in different places.

What was measured:
[1] = test system: transcellular synthesis of prostacyclin; assay: Transcellular prostacyclin synthesis: PRP layered on acetylsalicylic acid-pretreated endothelial cells (6-keto-prostaglandin F1α by radioimmunoassay); format: cell-based, bovine
Method: The effects on the transcellular synthesis of prostacyclin from endoperoxides generated in platelets were assessed by layering platelet rich plasma (PRP), obtained from healthy human subjects as described above, on cultured bovine endothelial cells (5 x 10^5 cells/well). The endothelial cells were pretreated with acetylsalicylic acid (10^-4 M) in order to inhibit the direct synthesis of endoperoxides, and washed twice with Dulbecco's phosphate buffered saline. Then to individual samples of endothelial cells there were added at 37°C while shaking on an oscillating platform, 0.5 ml of PRP samples pretreated with the test compounds in various concentrations, ranging from 10^-7 M to 10 ^-3 M. Collagen (0.5 µg/ml) was then added to each sample. After 2 minutes of contact at 37°C, PRP was removed and centrifuged at 12,000 x g, and the supernatant was frozen and kept at -20°C for the determination of 6-keto-prostaglandin F1α by radioimmunoassay.
6-Keto-prostaglandin F1α is a stable metabolite into which prostacyclin is rapidly converted.

[2] = test system: thromboxane synthesis; assay: Thromboxane synthesis in clotting blood (serum TxB2 by radioimmunoassay); format: cell-based; conditions: human blood clotted 60 min at 37°C
Method: Test compounds were added in a series of concentrations ranging from 10^-7 M to 10^-3 M to samples of blood from healthy human subjects, who had not taken cyclooxygenase inhibitors (acetylsalicylic acid, non-steroidal antiinflammatory agents) for at least two weeks. The blood samples were allowed to clot for 60 min in a bath at 37°C, and then centrifuged at 2500 x g for 10 min. The serum was separated and kept frozen at -20°C for the determination of TxB2 by radioimmunoassay. TxB2 is the stable metabolite into which thromboxane A2 is rapidly converted.

[3] = test system: platelet-rich plasma (PRP); assay: Platelet aggregation in platelet-rich plasma (aggregometer, light transmittance); format: cell-based; conditions: for IC50: Homo sapiens, Platelet, 10 min, 10 min incubation
Method: Platelet aggregation experiments were performed on platelet-rich plasma (PRP) prepared from blood of healthy human subjects, who had not taken cyclooxygenase inhibitors (acetylsalicylic acid, non-steroidal antiinflammatory agents) for at least two weeks. Blood was collected in test tubes containing a 3.2 % sodium citrate solution (1/10 of blood volume) and immediately centrifuged at 150 x g for 15 minutes. Samples of PRP were further centrifuged at 12,000 x g in order to obtain platelet-poor plasma (PPP), used for calibration of light transmittance of the double-channel aggregometer, fixing the transmittance of PRP as 10 % and that of PPP as 90 %. Platelet aggregation in PRP of each subject was tested measuring the percent increase in transmittance under the addition of increasing amounts of sodium arachidonate, in concentrations in the range from 300 to 900 µM, or of collagen, in concentrations in the range from 0.5 to 2.5 µg/ml, or of U-46619, in concentrations in the range from 0.2 to 1.6 µM. […] In this way the threshold concentration, i.e., the concentration inducing a submaximal irreversible aggregation was assessed in each subject with the three agents.
PRP samples of subjects not responding to the maximal concentrations were discarded.

[4] = test system: rabbit aortae; assay: Vascular relaxation of precontracted aortic rings in vitro; format: cell-based; conditions: for EC50: Oryctolagus cuniculus, read-out: calculated EC50
Method: The ability to induce vascular relaxation by acting as a donor of nitric oxide was tested in vitro on rabbit aortae. Rings of aortae were suspended in a Krebs-Henseleit solution at 37°C, submitted to a 1 g tension and connected to a force transducer.

[5] = human PRP on acetylsalicylic acid-treated bovine endothelial cells, collagen 0.5 µg/ml
[6] = rabbit aortic rings contracted with norepinephrine (10^-6 M)

O=C(O)Cc1ccc(CCNS(=O)(=O)c2ccc(Cl)cc2)cc1 [daltroban, p-[2-(p-chlorobenzenesulfonamido)ethyl]phenylacetic, reference compound]
production of the prostacyclin metabolite (effect in words) [1, 5]: did not stimulate the synthesis of prostacyclin | effect on thromboxane synthesis [2]: did not show any effect

COc1ccc(C(=O)N[C@H]2CC[C@H](O[N+](=O)[O-])CC2)cc1C(=O)NCc1cccnc1 [4-methoxy-N^1-(4-trans-nitrooxycyclohexyl)-N^3-(3-pyridinylmethyl)-1,3-benzenedicarboxamide]
concentration from which production of the prostacyclin metabolite was increased [1, 5]: 10^-6 M | production of the prostacyclin metabolite (effect in words) [1, 5]: markedly increased | production of the prostacyclin metabolite (6-keto-prostaglandin F1α), level reached ([1]; human PRP on acetylsalicylic acid-treated bovine endothelial cells, collagen 0.5 µg/ml, up to): 800 to 1600 pg/mL | level times higher of the amount produced in basal conditions by endothelial cells not submitted to cyclooxygenase inhibition ([1]; relative to basal production of untreated endothelial cells): 8-16 times | IC50 ([2]; 1 h, read-out: IC50 (inhibit thromboxane synthesis)): 18 µM | IC50 ([3]; aggregation induced by U-46619 (threshold concentration)): 33 µM | IC50 ([3]; aggregation induced by arachidonic acid (threshold concentration)): 12 µM | IC50 ([3]; aggregation induced by collagen (threshold concentration)): 22 µM | EC50 ([4]; norepinephrine-contracted rabbit aortic rings, methylene blue 10^-5 M in the bath): 55 µM | EC50 [4, 6]: 3.2 µM | relaxation in aortic rings ([4]; aortic rings contracted with 5-hydroxytryptamine): similarly able to produce relaxation | relaxation in aortic rings ([4]; aortic rings contracted with U-46619): similarly able to produce relaxation | concentration inducing a complete relaxation of the aortic ring [4, 6]: 10^-4 M

O=C(O)/C=C/c1ccc(Cn2ccnc2)cc1 [ozagrel, (E)-3-[4-(1H-imidazol-1-ylmethyl)-phenyl]-2-propenoic acid, reference compound]
inhibitory activity in the aggregation induced by collagen ([3]; human PRP, up to 10^-3 M concentrations): did not show any significant inhibitory activity
